Laboratory results from patent publication US10703764B2, “Benzopiperazine compositions as BET bromodomain inhibitors” (FORMA Therapeutics, Inc., priority 2013, dated 2020).

Key:
BRD4 BD2 = target: T1, BRD4 BD2 (Homo sapiens, UniProt O60885); experiment: AlphaScreen binding assay, BRD4 Bromodomain 2
T1 construct: made in house
Procedure: (§1) The binding of Example compounds to BRD4 Bromodomain 1 and BRD4 Bromodomain 2 was assessed using 384-well AlphaScreen assay technology. His-epitope tagged BRD4 BD144-168 and BRD4 BD2333-460 were cloned, expressed, and purified to homogeneity. BRD4 BD1 and BRD4 BD2 binding and inhibition was assessed by monitoring the engagement of biotinylated Histone H4 (1-21) K5/8/12/16 tetra-acetylated peptide with the targets using the AlphaScreen technology (PerkinElmer). Specifically, in a 384-well black or white flat bottom plate, BRD4 BD1 (50 nM final) or BRD4 BD2 (100 nM final) was combined with peptide (50 nM final for BD1 or 100 nM final for BD2) in 50 mM HEPES (pH 7.3), 100 mM NaCl, 0.1% (w/v) BSA, and 0.01% (w/v) Triton X-100 either in the presence of DMSO (final 1.25% DMSO) or compound dilution series in DMSO. Alpha streptavidin donor beads and Nickel-chelate acceptor beads were added to a final concentration of 10 μg/ml each. After a minimum of 1 hour equilibration, plates were read on a BMG PHERAstar FS multi-label reader (BMG LabTech). The half maximal inhibitory concentration (IC50) values were calculated using IDBS Activity Base software with a four parameter logistic curve fit by the equation y=A+((B−A)/(1+((C/x)^D))), wherein A denotes the bottom plateau of the curve, B denotes the top plateau of the curve, C denotes the x value at the middle of the curve, D denotes the slope factor, x denotes the original known x values, and y denotes the original known y values. Data was fitted using the Levenburg Marquardt algorithm.

BRD4 BD1 = target: T2, BRD4 BD1 (Homo sapiens, UniProt O60885); experiment: AlphaScreen binding assay, BRD4 Bromodomain 1
T2 construct: made in house
Procedure: as §1

Compound | IC50 (BRD4 BD2) | IC50 (BRD4 BD1)
CC(=O)N1c2ccc(-c3ccc(S(C)(=O)=O)cc3)cc2N(C(=O)N2CCCC2)C[C@@H]1C [Example I-100, (S)-1-(2-methyl-6-(4-(methylsulfonyl)phenyl)-4-(pyrrolidine-1-carbonyl)-3,4-dihydroquinoxalin-1(2H)-yl)ethanone] | 50 to 500 nM | > 10000 nM
CC(=O)N1c2ccc(C(=O)N3CCCC3)cc2N(C(=O)c2ccco2)C[C@@H]1C [Example I-101, (S)-1-(4-(furan-2-carbonyl)-2-methyl-6-(pyrrolidine-1-carbonyl)-3,4-dihydroquinoxalin-1(2H)-yl)ethanone] | > 500 nM | > 10000 nM
CC(=O)N1c2ccc(-c3ccc(S(C)(=O)=O)cc3)cc2N(C=O)C[C@@H]1C [Example I-102, (S)-4-acetyl-3-methyl-7-(4-(methylsulfonyl)phenyl)-3,4-dihydroquinoxaline-1(2H)-carbaldehyde] | > 500 nM | > 10000 nM
C[C@H]1CN(C(=O)c2ccco2)c2cc(-c3ccc(S(C)(=O)=O)cc3)ccc2N1C=O [Example I-103, (S)-4-(furan-2-carbonyl)-2-methyl-6-(4-(methylsulfonyl)phenyl)-3,4-dihydroquinoxaline-1(2H)-carbaldehyde] | > 500 nM | > 10000 nM
CC(=O)N1c2ccc(-c3ccc(S(C)(=O)=O)cc3)cc2N(C)C[C@@H]1C [Example I-104, (S)-1-(2,4-dimethyl-6-(4-(methylsulfonyl)phenyl)-3,4-dihydroquinoxalin-1(2H)-yl)ethanone] | > 500 nM | > 10000 nM
CC(=O)N1c2ccc(-c3cnn(C4COC4)c3)cc2N(C(=O)CC(C)C)C[C@@H]1C [Example I-105, (S)-1-(4-acetyl-3-methyl-7-(1-(oxetan-3-yl)-1H-pyrazol-4-yl)-3,4-dihydroquinoxalin-1 (2H)-yl)-3-methylbutan-1-one] | 50 to 500 nM | > 10000 nM
CC(=O)N1c2ccc(-c3cnn(C4COC4)c3)cc2N(C(=O)C(F)F)C[C@@H]1C [Example I-106, (S)-1-(4-acetyl-3-methyl-7-(1-(oxetan-3-yl)-1H-pyrazol-4-yl)-3,4-dihydroquinoxalin-1(2H)-yl)-2,2-difluoroethanone] | 50 to 500 nM | > 10000 nM
CC(=O)N1c2ccc(-c3cnn(C4COC4)c3)cc2N(C(=O)CC2CC2)C[C@@H]1C [Example I-107, (S)-1-(4-acetyl-3-methyl-7-(1-(oxetan-3-yl)-1H-pyrazol-4-yl)-3,4-dihydroquinoxalin-1(2H)-yl)-2-cyclopropylethanone] | 50 to 500 nM | 1000 to 10000 nM
CC(=O)N1c2ccc(-c3cnn(C4COC4)c3)cc2N(C(=O)CC(F)(F)F)C[C@@H]1C [Example I-108, (S)-1-(4-acetyl-3-methyl-7-(1-(oxetan-3-yl)-1H-pyrazol-4-yl)-3,4-dihydroquinoxalin-1 (2H)-yl)-3,3,3-trifluoropropan-1-one] | 50 to 500 nM | > 10000 nM
CC(=O)N1c2ccc(-c3cnn(C4COC4)c3)cc2N(C(=O)C(C)C)C[C@@H]1C [Example I-109, (S)-1-(4-acetyl-3-methyl-7-(1-(oxetan-3-yl)-1H-pyrazol-4-yl)-3,4-dihydroquinoxalin-1 (2H)-yl)-2-methylpropan-1-one] | > 500 nM | > 10000 nM
CC(=O)N1c2ccc(-c3cnn(C4COC4)c3)cc2N(C(=O)C2CCOCC2)C[C@@H]1C [Example I-110, (S)-1-(2-methyl-6-(1-(oxetan-3-yl)-1H-pyrazol-4-yl)-4-(tetrahydro-2H-pyran-4-carbonyl)-3,4-dihydroquinoxalin-1(2H)-yl)ethanone] | > 500 nM | > 10000 nM
CC(=O)N1c2ccc(-c3cnn(C4COC4)c3)cc2N(C(=O)CC2CCCC2)C[C@@H]1C [Example I-111, (S)-1-(4-acetyl-3-methyl-7-(1-(oxetan-3-yl)-1H-pyrazol-4-yl)-3,4-dihydroquinoxalin-1(2H)-yl)-2-cyclopentylethanone] | 50 to 500 nM | 1000 to 10000 nM
CC(=O)N1c2ccc(-c3cnn(C4COC4)c3)cc2N(C(=O)C(C)(C)Cl)C[C@@H]1C [Example I-115, (S)-1-(4-acetyl-3-methyl-7-(1-(oxetan-3-yl)-1H-pyrazol-4-yl)-3,4-dihydroquinoxalin-1(2H)-yl)-2-chloro-2-methylpropan-1-one] | > 500 nM | > 10000 nM
CC(=O)N1c2ccc(-c3cnn(Cc4ccncc4)c3)cc2N(C(=O)C2CC2)C[C@@H]1C [Example I-118, (S)-1-(4-(cyclopropanecarbonyl)-2-methyl-6-(1-(pyridin-4-ylmethyl)-1H-pyrazol-4-yl)-3,4-dihydroquinoxalin-1(2H)-yl)ethanone] | 50 to 500 nM | 1000 to 10000 nM

Continued, values first:

IC50 (BRD4 BD2) | IC50 (BRD4 BD1) | Compound
50 to 500 nM | 1000 to 10000 nM | CC(=O)N1c2ccc(-c3cnn(CC(=O)N4CCOCC4)c3)cc2N(C(=O)C2CC2)C[C@@H]1C [Example I-125, (S)-2-(4-(1-acetyl-4-(cyclopropanecarbonyl)-2-methyl-1,2,3,4-tetrahydroquinoxalin-6-yl)-1H-pyrazol-1-yl)-1-morpholinoethanone]
50 to 500 nM | 1000 to 10000 nM | CNC(=O)Cn1cc(-c2ccc3c(c2)N(C(=O)C2CC2)C[C@H](C)N3C(C)=O)cn1 [Example I-132, (S)-2-(4-(1-acetyl-4-(cyclopropanecarbonyl)-2-methyl-1,2,3,4-tetrahydroquinoxalin-6-yl)-1H-pyrazol-1-yl)-N-methylacetamide]
50 to 500 nM | 1000 to 10000 nM | CC(=O)N1c2ccc(-c3cnn(CCC(=O)O)c3)cc2N(C(=O)C2CC2)C[C@@H]1C [Example I-136, (S)-3-(4-(1-acetyl-4-(cyclopropanecarbonyl)-2-methyl-1,2,3,4-tetrahydroquinoxalin-6-yl)-1H-pyrazol-1-yl)propanoic acid]
50 to 500 nM | 100 to 1000 nM | CC(=O)N1c2ccc(-c3cnn(Cc4noc(C)n4)c3)cc2N(C(=O)OC(C)C)C[C@@H]1C [Example I-138, (S)-isopropyl 4-acetyl-3-methyl-7-(1-((5-methyl-1,2,4-oxadiazol-3-yl)methyl)-1H-pyrazol-4-yl)-3,4-dihydroquinoxaline-1(2H)-carboxylate]
50 to 500 nM | 1000 to 10000 nM | CC(=O)N1c2ccc(-c3cnn(CCC(F)(F)F)c3)cc2N(C(=O)OC(C)C)C[C@@H]1C [Example I-142, (S)-isopropyl 4-acetyl-3-methyl-7-(1-(3,3,3-trifluoropropyl)-1H-pyrazol-4-yl)-3,4-dihydroquinoxaline-1(2H)-carboxylate]
50 to 500 nM | 1000 to 10000 nM | CC(=O)N1c2ccc(-c3cnn(CCN4CCOCC4)c3)cc2N(C(=O)C2CC2)C[C@@H]1C [Example I-151, (S)-1-(4-(cyclopropanecarbonyl)-2-methyl-6-(1-(2-morpholinoethyl)-1H-pyrazol-4-yl)-3,4-dihydroquinoxalin-1(2H)-yl)ethanone]
> 500 nM | > 10000 nM | CC(=O)N1c2ccc(-c3cnn(C4CC4)c3)nc2N(C(=O)Nc2ccc(F)cc2)C[C@@H]1C [Example I-192, (S)-1-acetyl-6-(1-cyclopropyl-1H-pyrazol-4-yl)-N-(4-fluorophenyl)-2-methyl-2,3-dihydropyrido[2,3-b]pyrazine-4(1H)-carboxamide]
> 500 nM | > 10000 nM | CC(=O)N1c2ccc(-c3cnn(C4CC4)c3)nc2N(C(=O)NC(C)C)C[C@@H]1C [Example I-193, (S)-1-acetyl-6-(1-cyclopropyl-1H-pyrazol-4-yl)-N-isopropyl-2-methyl-2,3-dihydropyrido[2,3-b]pyrazine-4(1H)-carboxamide]
50 to 500 nM | 1000 to 10000 nM | CC(=O)N1c2ccc(-c3ccc(S(C)(=O)=O)cc3)cc2N(C(=O)Oc2ccc(Cl)cc2)C[C@@H]1C [Example I-226]
> 500 nM | > 10000 nM | CC(=O)N1c2ccc(-c3ccc(S(C)(=O)=O)cc3)cc2N(C(=O)OCc2ccccc2)C[C@@H]1C [Example I-230]
50 to 500 nM | 1000 to 10000 nM | COC(=O)N1C[C@H](C)N(C(C)=O)c2ccc(-c3ccc(S(C)(=O)=O)cc3)cc21 [Example I-235]
50 to 500 nM | 1000 to 10000 nM | C#CCOC(=O)N1C[C@H](C)N(C(C)=O)c2ccc(-c3ccc(S(C)(=O)=O)cc3)cc21 [Example I-240]
50 to 500 nM | 1000 to 10000 nM | CC(=O)N1C[C@H](C)N(C(C)=O)c2ccc(-c3ccc(S(C)(=O)=O)cc3)cc21 [Example I-241]
> 500 nM | > 10000 nM | CC(=O)N1c2ccc(-c3ccc(S(C)(=O)=O)cc3)cc2N(C(=O)C(C)C)C[C@@H]1C [Example I-242]
> 500 nM | > 10000 nM | CC(=O)N1c2ccc(-c3ccc(S(C)(=O)=O)cc3)cc2N(C(=O)C(C)(C)C)C[C@@H]1C [Example I-243]
50 to 500 nM | 1000 to 10000 nM | CC(=O)N1c2ccc(-c3ccc(S(C)(=O)=O)cc3)cc2N(C(=O)C2CCCC2)C[C@@H]1C [Example I-244]
50 to 500 nM | 1000 to 10000 nM | CC(=O)N1c2ccc(-c3ccc(S(C)(=O)=O)cc3)cc2N(C(=O)CC2CCCC2)C[C@@H]1C [Example I-246]
> 500 nM | > 10000 nM | CC(=O)N1c2ccc(-c3ccc(S(C)(=O)=O)cc3)cc2N(C(=O)CC#N)C[C@@H]1C [Example I-247]
